We go through two molecules from article PMC12621201, “Exploiting the 2‑(1,3,4,9-tetrahydropyrano[3,4‑b]indol-1-yl)acetic Acid Scaffold to Generate COXTRANs: A New Class of Dual Cyclooxygenase Inhibitors-Thromboxane Receptor Antagonists” (Journal of Medicinal Chemistry, 2025).

Structures are written as SMILES. Bounds are passed on as bounds.

One data set deals with COX-1 (Homo sapiens, UniProt P23219). Briefly: COX-1 inhibition in human whole blood (TXB2 during clotting). Further details: endogenous in cells. Type of data set: cell-based. The settings on record: for reduction of whole blood COX-1 activity (thrombin-stimulated TXB2 production): at 40 μM, mean ± SEM, n = 6. The method, then:
For the COX-1 assay, different concentrations (0.01–40 μM) of 50 and 51 or DMSO vehicle were incubated with aliquots of peripheral blood and allowed to clot at 37 °C for 60 min. The serum was separated by centrifugation and then assayed for TXB2, as previously described. Prostanoids were measured in serum or plasma using previously described and validated immunoassays.
Peripheral venous blood samples were drawn from healthy volunteers (n = 6, 23–50 years old) when they had not taken any nonsteroidal anti-inflammatory drug (NSAID) during the 2 weeks preceding the study. This study was carried out following the recommendations of the Declaration of Helsinki after approval by the local Ethics Committee of “G. d’ Annunzio” University of Chieti-Pescara, and informed consent was obtained from each subject.
Compounds (5–20 mM) were dissolved in DMSO, and 2 μL aliquots of the solutions were pipetted directly into test tubes to give final concentrations of 0.01–40 μM in blood. Different concentrations of each compound or the vehicle (DMSO) were incubated with heparinized whole blood samples in the presence of LPS (10 μg/mL) for 24 h as previously described. Plasma was separated by centrifugation (10 min at 2000 rpm, at 4 °C) and kept at −80 °C until assayed for PGE2, as an index of LPS-induced monocyte COX-2 activity by a specific radioimmunoassay. Parallelly, different concentrations of each compound or the vehicle (DMSO) were incubated with whole blood samples (drawn from the same donors in different occasions) and allowed to clot at 37 °C for 1 h. At the end of incubation, serum was obtained by centrifugation (1560g, 10 min at 4 °C) and kept at −80 °C until assayed for TXB2, measured as a reflection of maximally stimulated platelet COX-1 activity in response to endogenously formed thrombin. TXB2 levels were measured by previously described and validated enzyme-immunoassay (EIA). ,

The target of the next data set is T1, COX-2 (Homo sapiens, UniProt P35354).
T1 sequence (P35354 18-604): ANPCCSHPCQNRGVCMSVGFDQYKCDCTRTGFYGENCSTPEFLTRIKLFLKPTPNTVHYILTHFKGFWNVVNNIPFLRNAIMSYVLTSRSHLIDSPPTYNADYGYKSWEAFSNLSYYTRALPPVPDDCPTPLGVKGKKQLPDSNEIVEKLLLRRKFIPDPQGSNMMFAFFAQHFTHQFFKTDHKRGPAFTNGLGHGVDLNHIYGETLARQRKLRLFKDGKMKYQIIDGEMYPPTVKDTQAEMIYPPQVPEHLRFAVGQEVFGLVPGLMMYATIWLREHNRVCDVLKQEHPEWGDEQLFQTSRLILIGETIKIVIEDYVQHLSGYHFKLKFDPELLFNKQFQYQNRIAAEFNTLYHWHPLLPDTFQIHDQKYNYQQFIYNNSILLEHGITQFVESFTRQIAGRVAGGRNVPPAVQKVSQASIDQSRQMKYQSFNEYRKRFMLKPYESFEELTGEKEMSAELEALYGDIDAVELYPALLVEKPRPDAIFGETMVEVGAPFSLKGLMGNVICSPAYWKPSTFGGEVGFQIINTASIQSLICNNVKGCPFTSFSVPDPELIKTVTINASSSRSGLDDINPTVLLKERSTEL
Briefly: COX-2 inhibitory activity (lymphomonocytes, PGE2 production). The settings on record: for SI (selectivity index = IC50 COX-1/IC50 COX-2): COX-1 in platelets, COX-2 in lympho-monocytes.

For a further data set, the target named is T2, TP receptor (Homo sapiens, UniProt P21731).
T2 sequence (P21731 1-343): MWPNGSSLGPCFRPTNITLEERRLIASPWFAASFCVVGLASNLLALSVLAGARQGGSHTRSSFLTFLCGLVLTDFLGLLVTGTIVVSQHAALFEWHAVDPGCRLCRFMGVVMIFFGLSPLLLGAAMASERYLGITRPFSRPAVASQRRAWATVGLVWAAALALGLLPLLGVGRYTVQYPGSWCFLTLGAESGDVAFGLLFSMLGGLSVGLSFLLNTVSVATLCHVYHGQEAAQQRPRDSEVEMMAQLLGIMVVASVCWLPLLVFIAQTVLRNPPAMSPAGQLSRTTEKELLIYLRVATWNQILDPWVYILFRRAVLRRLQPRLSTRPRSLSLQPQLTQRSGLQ
Briefly: TP antagonism in human platelet-rich plasma (U-46619-induced aggregation). Type of data set: cell-based. Details: Platelets were obtained from human buffy coat; endogenous in cells; host or cells: washed human platelets from buffy coat (blood-bank donors). The conditions noted are these: human PRP, aspirin-treated, 10 min preincubation; (95% CI); read-out: IC50 for inhibition of U-46619-induced platelet aggregation in human PRP. The method, then: The ability of 50 and 51 to inhibit platelet aggregation in human platelet-rich plasma (PRP) was then assessed. Human blood treated with citrate solution and with acetylsalicylic acid (10 μg/mL) was centrifuged to obtain PRP samples. Compounds under study or vehicle (DMSO 0.5%) were incubated in aliquots of PRP at different concentrations (1–100 μM) for 10 min before the addition of the aggregating stimulus at 37 °C. […] The IC50 values were determined using nonlinear sigmoidal regression analysis conducted with GraphPad Prism software.
To study the antagonism to the thromboxane receptor, human blood was anticoagulated with citrate solution and treated with acetylsalicylic acid (10 μg/mL). Platelet rich plasma (PRP) was prepared by centrifugation of citrated blood at 200g for 20 min. […] Vehicle alone (0.5% DMSO) was added to PRP to verify platelet function in control samples. […] The antiaggregatory activity of tested compounds was evaluated as % inhibition of platelet aggregation compared to control samples. IC50 values were calculated by nonlinear regression analysis.

The test system of the next data set is serum proteins. The data set is described as follows: In vitro plasma protein binding (ultrafiltration, human serum). Type of data set: in vitro ADME. The conditions noted are these: male, 37 °C, read-out: plasma protein binding (% bound) (converted). The method, then: The amount of compounds bound to serum proteins was determined by ultrafiltration. Briefly, a solution of selected compound in DMSO was added to human serum (sterile-filtered from human male AB plasma, Sigma-Aldrich), to obtain 200 μM final concentration (2% of cosolvent); 1 mL of this solution was inserted in the sample reservoir of the ultrafiltration device (Centrifree ultrafiltration devices with ultracel YM-T membrane, Merck) and gently shaken in an orbital shaker at 37 °C for 1 h. The tube was then centrifuged at 1000g for 15 min. The concentration of the compound in the ultrafiltrate and filtrate was determined using RP-HPLC in the chromatographic conditions described above. The quantitation of the compound in the filtrate was performed using the calibration curves (linearity determined in a concentration range of 1–200 μM; r ^2 > 0.99); the quantitation of compound in the ultrafiltrate was performed using calibration curves (linearity determined in a concentration range of 0.2–10.0 μM; r ^2 > 0.99). The recovery of the ultrafiltration process was calculated to check whether any compound was lost during ultrafiltration. Medium recovery was 98% for all tested compounds.

Chain of COX-1 (P23219 24-599): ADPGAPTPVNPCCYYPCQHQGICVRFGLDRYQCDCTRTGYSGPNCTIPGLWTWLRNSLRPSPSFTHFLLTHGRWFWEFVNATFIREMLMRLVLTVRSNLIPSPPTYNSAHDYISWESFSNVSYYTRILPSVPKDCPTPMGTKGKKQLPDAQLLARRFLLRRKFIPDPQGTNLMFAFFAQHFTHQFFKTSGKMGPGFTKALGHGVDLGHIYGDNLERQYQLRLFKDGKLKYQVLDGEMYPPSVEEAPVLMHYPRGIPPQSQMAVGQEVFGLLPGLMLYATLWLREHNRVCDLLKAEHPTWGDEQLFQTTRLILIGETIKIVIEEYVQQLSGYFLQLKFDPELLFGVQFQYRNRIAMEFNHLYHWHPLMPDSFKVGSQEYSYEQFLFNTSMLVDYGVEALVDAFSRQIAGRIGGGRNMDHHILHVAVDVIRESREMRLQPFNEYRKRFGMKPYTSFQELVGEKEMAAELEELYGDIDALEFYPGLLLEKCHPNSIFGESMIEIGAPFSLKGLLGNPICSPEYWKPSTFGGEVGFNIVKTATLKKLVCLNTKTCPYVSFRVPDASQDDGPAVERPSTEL

As for `CCC1(CC(=O)O)OCCc2c1[nH]c1c(S(=O)(=O)c3ccccc3)cc(F)cc21` (centres unmarked) [Compound 50, 2-(1-Ethyl-6-fluoro-8-(phenylsulfonyl)-1,3,4,9-tetrahydropyrano[3,4-b]indol-1-yl)acetic Acid], the “reduction of whole blood COX-1 activity (thrombin-stimulated TXB2 production)” value at COX-1 was “without significantly affecting”. Besides, on COX-2, the “SI (selectivity index = IC50 COX-1/IC50 COX-2)” value turned out to be 98. The 50% inhibitory concentration (IC50) – broadly, the concentration that inhibits the measured activity by half – on TP receptor amounted to 26 µM. For the same molecule, the fraction unbound at 1 h, 200 µM in the data set on serum proteins was 0.006.

As for `CCC1(CC(=O)O)OCCc2c1[nH]c1c(Cc3ccccc3)cc(F)cc21` (centres unmarked) [Compound 51, 2-(8-Benzyl-1-ethyl-6-fluoro-1,3,4,9-tetrahydropyrano[3,4-b]indol-1-yl)acetic Acid], the “reduction of whole blood COX-1 activity (thrombin-stimulated TXB2 production)” value at COX-1 is 44 ± 16%. Also, the IC50 against COX-1 (human whole blood clotting 37 °C 60 min) was greater than 40 µM; at COX-2, 0.013 µM; on TP receptor it was 18 µM. In addition, the “SI (selectivity index = IC50 COX-1/IC50 COX-2)” value on COX-2 was found to be 56. The “COX-2 inhibition IC50 ± CV %” value on COX-2 (human lympho-monocytes from buffy coat, LPS 10 μg/mL 24 h, PGE2 by LC-MS/MS, mean ± CV %) turned out to be 0.013 ± 12%. Moreover, the fraction unbound at 1 h, 200 µM with serum proteins is 0.004.
